Measured values published in patent publication US9783527B2, “Indazole ureas and method of use” (AbbVie Inc., priority 2014, dated 2017).

How the values were obtained:
[1] = system: MIA-induced osteoarthritic pain in rats; test: Osteoarthritic (OA) pain induced by sodium monoiodoacetate (MIA), hind limb grip force; format: in vivo, rat; settings: male Sprague Dawley rats, grip force 20 days after MIA injection
Procedure: Osteoarthritic (OA) Pain Induced by Sodium Monoiodoacetate (MIA)
Pain behavior was assessed by measurement of hind limb grip force (GF) in adult osteoarthritic rats. Male Sprague Dawley rats, obtained from Charles River Laboratories, (Wilmington, Mass.), weighing 150-175 g, were injected in the unilateral knee join with a single intra-articular injection of sodium monoiodoacetate (MIA, 3 mg/rat). All rats were tested at 20 days following MIA injection. A behavioral measure of activity-induced pain was carried out. Measurements of the peak hind limb grip force were conducted by recording the maximum compressive force (CFmax), in grams of force, exerted on a hind limb strain gauge setup, in a commercially available grip force measurement system (Columbus Instruments, Columbus, Ohio).
During testing, each rat was gently restrained by grasping it around its rib cage and then allowed to grasp the wire mesh frame attached to the strain gauge. The experimenter then moved the animal in a rostral-to-caudal direction until the grip was broken. Each rat was sequentially tested twice at an approximately 2-3 minute interval to obtain a raw mean grip force (CFmax). This raw mean grip force data was in turn converted to a maximum hindlimb cumulative compressive force (CFmax), as the grams of force/kg of body weight, for each animal.
For evaluating the compound effects, the hind limb grip force was conducted 20 days following the intra-articular injection of MIA. A group of age-matched nave (not injected with MIA) animals was added as a comparator to the drug-dosed groups. The vehicle control response for each group of MIA-treated animals was defined as the 0% response (0% effect), whereas the nave control group was defined as the normal response and as 100% effect. The % effect for each dose group was expressed as % return of response to normalcy, compared to the nave group. A percent maximal possible effect (% MPE) of testing compound was calculated according to the formula: (Treatment CFmax−Vehicle CFmax)/Vehicle CFmax]×100). Higher % effect numbers indicate increased relief from the pain in the model, with 100% indicating a return to the level of response seen in normal (non-osteoarthritic) animals. All experiments evaluating drug effects in this model were conducted in a randomized blinded fashion.
(§1) The animals were housed in Association for Assessment and Accreditation of Laboratory Animal Care (AAALAC) approved facilities at AbbVie Inc. in a temperature-regulated environment under a controlled 12-hour light-dark cycle, with lights on at 6:00 a.m. Food and water were available ad libitum at all times except during testing. All testing was done following procedures outlined in protocols approved by AbbVie Inc.'s Institutional Animal Care and Use Committee.

[2] = system: spinal nerve ligation-induced neuropathic pain in rats; test: Rat spinal nerve ligation (SNL) model of neuropathic pain, von Frey paw withdrawal threshold; format: in vivo; settings: SNL dose 100 mg/kg; male Sprague Dawley rats, mechanical sensitivity (von Frey)
From the text: Rat Spinal Nerve Ligation (SNL) Model of Neuropathic Pain.
A model of spinal nerve ligation-induced (SNL model) neuropathic pain as originally described by Kim and Chung (Kim, S. H. and J. M. Chung, 1992, Pain 50, 355) was used to test a compound of the present application. The male Sprague Dawley rats (Charles River Laboratories, Wilmington, Mass.), weighing 150-175 g at the time of surgery, were placed under isoflurane anesthesia and a 1.5 cm incision was made dorsal to the lumbosacral plexus. The paraspinal muscles (left side) were separated from the spinous processes, the left L5 and L6 spinal nerves isolated, and tightly ligated with 5-0 silk suture distal to the dorsal root ganglion. Care was taken to avoid ligating the L4 spinal nerve. Following spinal nerve ligation, a minimum of 7 days of recovery and no more than 3 weeks was allowed prior to the behavioral testing (mechanical sensitivity). Only rats with threshold scores ≦4.5 g were considered allodynic and utilized in pharmacological experiments.
Mechanical sensitivity was measured using calibrated von Frey filaments (Stoelting, Wood Dale, Ill.). Paw withdrawal threshold (PWT) was determined by using the Dixon's up-down method (Dixon, W. J., 1980, Ann. Rev. Pharmacol. Toxicol., 20, 441). Rats were placed into inverted individual plastic containers (20×12.5×20 cm) on top of a suspended wire mesh with a 1 cm^2 grid to provide access to the ventral side of the hind paws, and acclimated to the test chambers for 20 minutes. The von Frey filaments were presented perpendicularly to the plantar surface of the selected hind paw, and then held in this position for approximately 8 seconds with enough force to cause a slight bend in the filament. Positive responses included an abrupt withdrawal of the hind paw from the stimulus, or flinching behavior immediately following removal of the stimulus. A 50% withdrawal threshold was determined using an up-down procedure (Dixon, 1980). A percent maximal possible effect (% MPE) of testing compound was calculated according to the formula: (Log [compound-treated threshold]−Log [vehicle-treated threshold])/(Log [maximum threshold]−Log [vehicle-treated threshold])×100%, where the maximum threshold was equal to 15 g.
as §1, with “Inc.s'” for “Inc.'s”

human Nav1.8 = human Nav1.8 (Homo sapiens (Human), UniProt Q9Y5Y9); test: FRET-based membrane potential assay, recombinant human sodium channel Nav1.8; format: cell-based; settings: HEK293 cells stably expressing recombinant human Nav1.8; depolarization with veratridine (EC80) + scorpion venom
Chain of human Nav1.8 (Q9Y5Y9 whole entry): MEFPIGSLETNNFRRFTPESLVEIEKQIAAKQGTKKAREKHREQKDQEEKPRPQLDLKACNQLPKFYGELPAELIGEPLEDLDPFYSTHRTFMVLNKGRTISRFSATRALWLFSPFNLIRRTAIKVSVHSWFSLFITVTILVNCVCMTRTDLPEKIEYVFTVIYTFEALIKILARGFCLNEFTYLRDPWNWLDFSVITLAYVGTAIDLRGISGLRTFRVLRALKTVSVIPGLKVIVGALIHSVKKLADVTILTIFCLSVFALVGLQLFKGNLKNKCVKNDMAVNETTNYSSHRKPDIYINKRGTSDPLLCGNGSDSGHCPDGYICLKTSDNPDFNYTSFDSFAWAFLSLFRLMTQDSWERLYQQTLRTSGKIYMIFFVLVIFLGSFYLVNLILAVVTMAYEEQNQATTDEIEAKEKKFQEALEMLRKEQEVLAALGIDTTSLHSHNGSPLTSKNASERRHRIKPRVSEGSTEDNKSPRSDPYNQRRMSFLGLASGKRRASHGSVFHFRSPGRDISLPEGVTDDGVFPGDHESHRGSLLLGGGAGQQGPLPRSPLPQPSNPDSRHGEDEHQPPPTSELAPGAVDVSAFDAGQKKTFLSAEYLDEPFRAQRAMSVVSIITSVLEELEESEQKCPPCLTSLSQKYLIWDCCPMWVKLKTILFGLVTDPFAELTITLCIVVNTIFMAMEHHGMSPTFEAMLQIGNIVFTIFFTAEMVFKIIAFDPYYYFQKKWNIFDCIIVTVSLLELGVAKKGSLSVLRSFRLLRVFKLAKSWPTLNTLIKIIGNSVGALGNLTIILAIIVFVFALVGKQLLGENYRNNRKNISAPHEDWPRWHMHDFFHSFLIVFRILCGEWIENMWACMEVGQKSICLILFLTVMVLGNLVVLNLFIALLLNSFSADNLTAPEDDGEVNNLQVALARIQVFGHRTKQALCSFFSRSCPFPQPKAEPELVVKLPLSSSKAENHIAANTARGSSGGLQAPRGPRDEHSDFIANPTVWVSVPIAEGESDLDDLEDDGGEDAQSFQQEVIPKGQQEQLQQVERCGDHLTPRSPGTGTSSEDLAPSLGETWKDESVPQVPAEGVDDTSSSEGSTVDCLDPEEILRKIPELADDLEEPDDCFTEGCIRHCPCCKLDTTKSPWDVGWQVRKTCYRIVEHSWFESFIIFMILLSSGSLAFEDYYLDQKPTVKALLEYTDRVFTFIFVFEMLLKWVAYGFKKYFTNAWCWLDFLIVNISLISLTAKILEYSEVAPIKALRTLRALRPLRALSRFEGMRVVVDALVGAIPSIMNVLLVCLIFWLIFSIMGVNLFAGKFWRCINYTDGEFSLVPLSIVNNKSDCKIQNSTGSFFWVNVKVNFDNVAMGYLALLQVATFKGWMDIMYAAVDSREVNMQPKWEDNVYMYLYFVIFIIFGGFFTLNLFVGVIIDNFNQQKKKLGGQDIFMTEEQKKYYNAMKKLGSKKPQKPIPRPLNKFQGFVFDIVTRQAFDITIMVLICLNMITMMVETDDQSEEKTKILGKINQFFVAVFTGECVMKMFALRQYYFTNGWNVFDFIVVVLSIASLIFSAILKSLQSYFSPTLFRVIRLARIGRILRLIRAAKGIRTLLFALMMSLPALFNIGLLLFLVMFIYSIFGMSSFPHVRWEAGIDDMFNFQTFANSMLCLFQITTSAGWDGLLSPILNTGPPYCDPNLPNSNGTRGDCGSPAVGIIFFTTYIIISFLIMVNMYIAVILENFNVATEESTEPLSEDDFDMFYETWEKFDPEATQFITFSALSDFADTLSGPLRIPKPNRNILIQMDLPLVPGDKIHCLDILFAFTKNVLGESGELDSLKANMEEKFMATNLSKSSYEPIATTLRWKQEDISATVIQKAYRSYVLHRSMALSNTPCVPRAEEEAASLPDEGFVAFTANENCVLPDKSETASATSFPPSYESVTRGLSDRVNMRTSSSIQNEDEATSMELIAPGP
How it was run: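 HEK293 cells stably expressing Nav1.8 were loaded with CC2-DMPE/DiSBAC2(3) FRET voltage dyes. Compounds were added 3 min before depolarization with EC80 veratridine plus scorpion venom. The F440-480/F565-625 ratio was read on FLIPR; IC50 came from four-parameter Hill fits.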

human Nav1.7 = human Nav1.7 (Homo sapiens (Human), UniProt Q15858); test: FRET-based membrane potential assay, recombinant human sodium channel Nav1.7; format: cell-based; settings: HEK293 cells stably expressing recombinant human Nav1.7; depolarization with veratridine (EC80) + scorpion venom
Chain of human Nav1.7 (Q15858 whole entry): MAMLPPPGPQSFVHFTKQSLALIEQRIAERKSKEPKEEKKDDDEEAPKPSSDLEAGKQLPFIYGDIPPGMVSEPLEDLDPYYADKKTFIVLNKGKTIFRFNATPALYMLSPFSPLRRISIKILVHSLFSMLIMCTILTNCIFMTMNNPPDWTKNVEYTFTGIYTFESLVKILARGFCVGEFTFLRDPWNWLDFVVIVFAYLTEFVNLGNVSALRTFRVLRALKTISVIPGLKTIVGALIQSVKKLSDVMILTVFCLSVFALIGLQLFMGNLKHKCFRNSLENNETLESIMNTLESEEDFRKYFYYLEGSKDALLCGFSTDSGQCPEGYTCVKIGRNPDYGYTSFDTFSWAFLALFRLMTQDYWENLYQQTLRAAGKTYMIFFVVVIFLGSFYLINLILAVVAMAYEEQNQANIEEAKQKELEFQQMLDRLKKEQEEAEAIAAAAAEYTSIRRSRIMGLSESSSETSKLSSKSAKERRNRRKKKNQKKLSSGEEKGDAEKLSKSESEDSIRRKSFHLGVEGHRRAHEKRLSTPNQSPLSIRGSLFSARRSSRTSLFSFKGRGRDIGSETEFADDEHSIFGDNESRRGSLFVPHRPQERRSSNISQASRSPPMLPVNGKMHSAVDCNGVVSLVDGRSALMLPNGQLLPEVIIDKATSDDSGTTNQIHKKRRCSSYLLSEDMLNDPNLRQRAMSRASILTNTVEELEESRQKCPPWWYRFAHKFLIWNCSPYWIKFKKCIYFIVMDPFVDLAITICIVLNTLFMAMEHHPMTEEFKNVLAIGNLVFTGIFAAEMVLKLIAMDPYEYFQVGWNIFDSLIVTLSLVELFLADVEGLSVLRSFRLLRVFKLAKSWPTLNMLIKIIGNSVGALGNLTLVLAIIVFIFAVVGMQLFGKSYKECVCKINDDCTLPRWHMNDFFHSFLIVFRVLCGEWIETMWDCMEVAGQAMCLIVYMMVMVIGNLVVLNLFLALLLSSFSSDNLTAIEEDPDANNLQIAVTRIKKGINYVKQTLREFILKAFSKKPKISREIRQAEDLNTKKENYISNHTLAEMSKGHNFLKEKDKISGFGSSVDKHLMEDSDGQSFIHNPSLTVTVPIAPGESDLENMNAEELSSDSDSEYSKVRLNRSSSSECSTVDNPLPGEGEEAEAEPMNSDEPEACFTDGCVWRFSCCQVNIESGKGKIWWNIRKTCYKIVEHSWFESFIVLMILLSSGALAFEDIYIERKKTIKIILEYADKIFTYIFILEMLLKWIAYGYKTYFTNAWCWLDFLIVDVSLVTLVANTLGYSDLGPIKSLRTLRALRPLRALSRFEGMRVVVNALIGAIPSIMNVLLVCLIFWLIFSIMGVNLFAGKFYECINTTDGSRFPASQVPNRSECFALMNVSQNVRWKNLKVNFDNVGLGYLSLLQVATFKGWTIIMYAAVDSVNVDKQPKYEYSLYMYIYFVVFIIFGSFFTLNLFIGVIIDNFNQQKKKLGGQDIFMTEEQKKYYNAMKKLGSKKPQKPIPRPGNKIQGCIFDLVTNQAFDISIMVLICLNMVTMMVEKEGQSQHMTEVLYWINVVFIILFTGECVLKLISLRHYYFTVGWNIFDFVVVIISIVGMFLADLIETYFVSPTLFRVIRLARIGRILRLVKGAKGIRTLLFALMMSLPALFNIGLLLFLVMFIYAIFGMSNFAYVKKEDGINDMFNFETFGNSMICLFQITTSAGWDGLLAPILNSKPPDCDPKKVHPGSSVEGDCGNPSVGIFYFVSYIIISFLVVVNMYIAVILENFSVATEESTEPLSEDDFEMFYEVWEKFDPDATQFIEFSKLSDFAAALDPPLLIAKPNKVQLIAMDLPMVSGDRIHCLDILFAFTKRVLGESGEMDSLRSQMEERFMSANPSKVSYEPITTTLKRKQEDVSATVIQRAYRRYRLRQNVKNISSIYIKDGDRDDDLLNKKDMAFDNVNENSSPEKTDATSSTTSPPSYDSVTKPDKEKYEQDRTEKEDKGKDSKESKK
How it was run: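 IC50 derived by four-parameter Hill fit of percent inhibition of depolarization, measured as peak F440-480/F565-625 ratio over baseline. Stable human Nav1.7 HEK293 cells, dye-loaded with CC2-DMPE and DiSBAC2(3)/VABSC-1 at room temperature, received compound 3 min ahead of veratridine (EC80) plus scorpion venom.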

| SMILES | OA MPE (%) ([1]; OA dose 30 mg/kg) | SNL MPE (%) [2] | IC50 (human Nav1.8) | IC50 (human Nav1.7) | OA MPE (%) ([1]; OA dose 10 mg/kg) |
| --- | --- | --- | --- | --- | --- |
| O=C(CN1CCN(c2cccc3c2cnn3-c2ccccc2F)C1=O)N1CCCC1 [Example 1, 1-[1-(2-fluorophenyl)-1H-indazol-4-yl]-3-[2-oxo-2-(pyrrolidin-1-yl)ethyl]imidazolidin-2-one] | 55% | 52% | – | – | – |
| CC(C)(C)OC(=O)N1CCN(c2cccc3c2cnn3-c2ccccc2F)C1=O [Example 2, tert-butyl 3-[1-(2-fluorophenyl)-1H-indazol-4-yl]-2-oxoimidazolidine-1-carboxylate] | – | 38% | – | – | – |
| NC(=O)CN1CCN(c2cccc3c2cnn3-c2ccccc2F)C1=O [Example 3, 2-{3-[1-(2-fluorophenyl)-1H-indazol-4-yl]-2-oxoimidazolidin-1-yl}acetamide] | – | 30% | – | – | – |
| CC(C)OC(=O)N1CCN(c2cccc3c2cnn3-c2ccccc2F)C1=O [Example 4, isopropyl 3-[1-(2-fluorophenyl)-1H-indazol-4-yl]-2-oxoimidazolidine-1-carboxylate] | – | 68% | 230 nM | 223 nM | – |
| CC(C)CC(=O)CN1CCN(c2cccc3c2cnn3-c2ccccc2F)C1=O [Example 8, 1-[1-(2-fluorophenyl)-1H-indazol-4-yl]-3-(4-methyl-2-oxopentyl)imidazolidin-2-one] | 75% | 57% | – | – | – |
| O=C(CN1CCN(c2cccc3c2cnn3-c2ccccc2F)C1=O)N1CC[C@H](F)C1 [Example 10, 1-[1-(2-fluorophenyl)-1H-indazol-4-yl]-3-{2-[(3S)-3-fluoropyrrolidin-1-yl]-2-oxoethyl}imidazolidin-2-one] | 91% | 0% | – | – | – |
| O=C1N(Cc2ccccn2)CCN1c1cccc2c1cnn2-c1ccccc1F [Example 12, 1-[1-(2-fluorophenyl)-1H-indazol-4-yl]-3-(pyridin-2-ylmethyl)imidazolidin-2-one] | – | 25% | 321 nM | 1020 nM | – |
| O=C1N(Cc2cocn2)CCN1c1cccc2c1cnn2-c1ccccc1F [Example 26, 1-[1-(2-fluorophenyl)-1H-indazol-4-yl]-3-(1,3-oxazol-4-ylmethyl)imidazolidin-2-one] | – | 54% | 517 nM | 382 nM | – |
| O=C1N(Cc2ncco2)CCN1c1cccc2c1cnn2-c1ccccc1F [Example 31, 1-[1-(2-fluorophenyl)-1H-indazol-4-yl]-3-(1,3-oxazol-2-ylmethyl)imidazolidin-2-one] | – | 94% | – | – | 89% |
| O=C(CN1CCN(c2cccc3c2cnn3-c2ccccc2F)C1=O)N1CCC[C@@H](F)C1 [Example 53, 1-[1-(2-fluorophenyl)-1H-indazol-4-yl]-3-{2-[(3R)-3-fluoropiperidin-1-yl]-2-oxoethyl}imidazolidin-2-one] | 74% | 47% | – | – | – |
| Cc1cccc(-n2ncc3c(N4CCN(CC(=O)N5CC[C@H](F)C5)C4=O)cccc32)c1 [Example 56, 1-{2-[(3S)-3-fluoropyrrolidin-1-yl]-2-oxoethyl}-3-[1-(3-methylphenyl)-1H-indazol-4-yl]imidazolidin-2-one] | 70% | – | 4630 nM | 1830 nM | – |
| CCC1(O)CN(C(=O)CN2CCN(c3cccc4c3cnn4-c3ccccc3F)C2=O)C1 [Example 205, 1-[2-(3-ethyl-3-hydroxyazetidin-1-yl)-2-oxoethyl]-3-[1-(2-fluorophenyl)-1H-indazol-4-yl]imidazolidin-2-one] | 46% | – | 1500 nM | 778 nM | – |
| O=C(CN1CCN(c2cccc3c2cnn3-c2ccccc2)C1=O)N1CC[C@H](F)C1 [Example 307, 1-{2-[(3S)-3-fluoropyrrolidin-1-yl]-2-oxoethyl}-3-(1-phenyl-1H-indazol-4-yl)imidazolidin-2-one] | 62% | – | 1420 nM | 520 nM | – |
| O=C(CN1CCN(c2cccc3c2cnn3-c2ccccc2F)C1=O)NC1(CO)CCC1 [Example 316, 2-{3-[1-(2-fluorophenyl)-1H-indazol-4-yl]-2-oxoimidazolidin-1-yl}-N-[1-(hydroxymethyl)cyclobutyl]acetamide] | 63% | – | 1650 nM | 3110 nM | – |
| CC1(NC(=O)CN2CCN(c3cccc4c3cnn4-c3ccccc3F)C2=O)CC1 [Example 333, 2-{3-[1-(2-fluorophenyl)-1H-indazol-4-yl]-2-oxoimidazolidin-1-yl}-N-(1-methylcyclopropyl)acetamide] | 86% | – | 4760 nM | 2410 nM | – |
